This passage reports EC50 and fold induction results from patent US20250171457A1, “NITROGEN-CONTAINING HETEROCYCLIC COMPOUND HAVING NRF2 ACTIVATION EFFECT” (CHUGAI SEIYAKU KABUSHIKI KAISHA, priority 2022, published 2025).

The subject of assay [1] is Nrf2 transcriptional activity (pARE-Luc reporter) in HepG2 cells. Kind of assay: In vitro Nrf2 transcriptional activity measurement by ARE-dependent reporter assay in HepG2 cell. Format: cell-based, human. The procedure, abridged: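 HepG2 cells transfected with pGL4.37 (pARE-Luc), replated onto compound and incubated 4 h at 37° C; luciferase read by Bright-Glo luminescence. Response normalized to 100% set by a reference compound at 3.75 μM; EC50 from dose-response curve.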

Assay [2] concerns Nqo1 (NAD(P)H quinone dehydrogenase 1) mRNA, Nrf2 downstream molecule. Kind of assay: In vivo Nrf2 transcriptional activity measurement (Nqo1 mRNA in organs by qPCR). The conditions noted are these: Mus musculus, C57BL/6J mice, 7 to 8 hours. As to the method:
Test Example 2: In Vivo Nrf2 Transcriptional Activity Measurement
A test compound (solvent: 10 vol % dimethyl sulfoxide/50 mM glycine/32 mM sodium hydroxide/physiological saline) was administered to C57BL/6J mice (7-8 weeks old), which were euthanized by whole blood collection under isoflurane anesthesia 7 to 8 hours later, followed by the collection of various organs. mRNA was purified from the collected organs, and the mRNA expression level of Mapk1 as an internal control and the mRNA expression level of Nqo1 (NAD(P)H quinone dehydrogenase 1) as a typical Nrf2 downstream molecule were each measured by qPCR. The Nqo1 mRNA expression level was quantified by comparative CT, and an expression level ratio to a non-administration group was calculated. The administration of the test compound elevated the Nqo1 mRNA expression level in the various organs, confirming that the test compound also has a Nrf2-activating effect in vivo.

Setting [3] is: Homo sapiens, HepG2 cells transfected with pARE-Luc, 4 hours at 37° C., luciferase activity of Example 1-54 or Example 17-23 at 3.75 μM defined as 100%.
The mark [4] stands for this setting: ip, Intraperitoneal, kidney, read-out: Nqo1 mRNA expression level ratio to non-administration group, Kidney.
Where [5] appears, read: ip, Intraperitoneal, liver, read-out: Nqo1 mRNA expression level ratio to non-administration group, Liver.
Setting [6] is: ip, Intraperitoneal, lung, read-out: Nqo1 mRNA expression level ratio to non-administration group, Lung.
Setting [7] is: HepG2 cells transfected with pARE-Luc, 4 hours at 37° C., luciferase activity of Example 1-54 or Example 17-23 at 3.75 μM defined as 100%, second printing of Table 20-1.
Setting [8] is: Oral, kidney, read-out: Nqo1 mRNA expression level ratio to non-administration group, Kidney.
Setting [9] is: Oral, liver, read-out: Nqo1 mRNA expression level ratio to non-administration group, Liver.
The mark [10] stands for this setting: Oral, lung, read-out: Nqo1 mRNA expression level ratio to non-administration group, Lung.

Like-named read-outs stand apart in the source and are kept apart here.

For `CC1COC2(CN(c3cc(Cl)c(C(=O)N4COc5c(cccc5-c5cc(N6C7CCC6COC7)c(C(=O)O)cc5F)C4)c(Cl)c3)C2)OC1` [Compound 5-7, 4-[3-[2,6-Dichloro-4-(7-methyl-5,9-dioxa-2-azaspiro[3.5]nonan-2-yl)benzoyl]-2,4-dihydro-1,3-benzoxazin-8-yl]-5-fluoro-2-(3-oxa-8-azabicyclo[3.2.1]octan-8-yl)benzoic acid], in assay [1] (setting [3]), the EC50 is 1.7 nM. Also, the fold induction at 10 mg/kg in assay [2] (setting [4]) came to 4; in assay [2] (setting [5]), 5.4; in assay [2] (setting [6]), 18.

With `CC1(C)COC2(CN(c3cc(Cl)c(C(=O)N4COc5c(cccc5-c5cc(N6C7CCC6COC7)c(C(=O)O)cc5F)C4)c(Cl)c3)C2)OC1` [Compound 5-9, 4-[3-[2,6-Dichloro-4-(7,7-dimethyl-5,9-dioxa-2-azaspiro[3.5]nonan-2-yl)benzoyl]-2,4-dihydro-1,3-benzoxazin-8-yl]-5-fluoro-2-(3-oxa-8-azabicyclo[3.2.1]octan-8-yl)benzoic acid], in assay [1] (setting [7]), the EC50 amounted to 1.7 nM. The fold induction at 15 mg/kg in assay [2] (setting [4]) was determined as 3.7; in assay [2] (setting [5]) it was 6.7; in assay [2] (setting [6]), 15. For the same molecule, the fold induction at 30 mg/kg was 5.2 in assay [2] (setting [8]), 6 in assay [2] (setting [9]) and 19 in assay [2] (setting [10]).

Take `O=C(O)c1cc(F)c(-c2cccc3c2OCN(C(=O)c2c(Cl)cc(N4CC5(C4)CC4(C5)OCCCO4)cc2Cl)C3)cc1N1C2CCC1COC2` [Compound 5-10, 4-[3-[2,6-Dichloro-4-(7,11-dioxa-2-azadispiro[3.1.56.14]dodecan-2-yl)benzoyl]-2,4-dihydro-1,3-benzoxazin-8-yl]-5-fluoro-2-(3-oxa-8-azabicyclo[3.2.1]octan-8-yl)benzoic acid]: the EC50 in assay [1] (setting [3]) turned out to be 3.2 nM. For the same molecule, the figures for the fold induction at 15 mg/kg in assay [2] (setting [4]), in assay [2] (setting [5]) and in assay [2] (setting [6]) were 5.1, 5.4 and 17, respectively.

In assay [1] (setting [3]), `COC1(OC)CN(c2cc(Cl)c(C(=O)N3COc4c(cccc4-c4ccc(C(=O)O)c(N5C6CCC5COC6)c4)C3)c(Cl)c2)C1` [Compound 5-16, 4-[3-[2,6-Dichloro-4-(3,3-dimethoxyazetidin-1-yl)benzoyl]-2,4-dihydro-1,3-benzoxazin-8-yl]-2-(3-oxa-8-azabicyclo[3.2.1]octan-8-yl)benzoic acid] displayed an EC50 of 3.5 nM. Also, the fold induction at 15 mg/kg in assay [2] (setting [8]) was found to be 3.6; in assay [2] (setting [9]), 4.8; in assay [2] (setting [10]) it was 14.

In the case of `O=C(O)c1cc(F)c(-c2cccc3c2OCN(C(=O)c2c(Cl)cc(N4CC5(CN(CC(F)F)C5)C4)cc2Cl)C3)cc1N1C2CCC1COC2` [Compound 7-2, 4-[3-[2,6-Dichloro-4-[6-(2,2-difluoroethyl)-2,6-diazaspiro[3.3]heptan-2-yl]benzoyl]-2,4-dihydro-1,3-benzoxazin-8-yl]-5-fluoro-2-(3-oxa-8-azabicyclo[3.2.1]octan-8-yl)benzoic acid], the EC50 in assay [1] (setting [3]) was 4.6 nM. Besides, the fold induction at 15 mg/kg in assay [2] (setting [4]) was 4.3; in assay [2] (setting [5]), 6.2; in assay [2] (setting [6]) it was 11.

`COC1CC2(C1)CN(c1cc(Cl)c(C(=O)N3COc4c(cccc4-c4cc(N5C6CCC5COC6)c(C(=O)O)cc4F)C3)c(Cl)c1)C2` [Compound 13-16, 4-[3-[2,6-Dichloro-4-(6-methoxy-2-azaspiro[3.3]heptan-2-yl)benzoyl]-2,4-dihydro-1,3-benzoxazin-8-yl]-5-fluoro-2-(3-oxa-8-azabicyclo[3.2.1]octan-8-yl)benzoic acid]: in assay [1] (HepG2 cells, pARE-Luc reporter, 4 hours, 100% = Example 1-54 or Example 17-23 at 3.75 μM), the EC50 was determined as 0.95 nM. Besides, the values for the fold induction at 15 mg/kg in assay [2] (setting [4]), in assay [2] (setting [5]) and in assay [2] (setting [6]) were 4.8, 6.6 and 20, respectively. The fold induction at 30 mg/kg in assay [2] (setting [8]) worked out at 4.5; in assay [2] (setting [9]), 6; in assay [2] (setting [10]), 22.

`C[C@@H]1CN(c2ccc(C(=O)N3COc4c(cccc4-c4cc(N5C6CCC5COC6)c(C(=O)O)cc4F)C3)c(Cl)c2)[C@H](C)CN1C` [Compound 13-21, 4-[3-[2-Chloro-4-[(2R,5R)-2,4,5-trimethylpiperazin-1-yl]benzoyl]-2,4-dihydro-1,3-benzoxazin-8-yl]-5-fluoro-2-(3-oxa-8-azabicyclo[3.2.1]octan-8-yl)benzoic acid] showed an EC50 in assay [1] (setting [7]) of 2.3 nM. The values for the fold induction at 30 mg/kg in assay [2] (setting [8]), in assay [2] (setting [9]) and in assay [2] (setting [10]) were 2.9, 4.9 and 3.6, respectively.

Take `Cn1cc(-c2cc(Cl)c(C(=O)N3COc4c(cccc4-c4ccc(C(=O)O)c(N5CCOCC5)c4)C3)c(Cl)c2)cn1` [Compound 14-1, 4-[3-[2,6-Dichloro-4-(1-methylpyrazol-4-yl)benzoyl]-2,4-dihydro-1,3-benzoxazin-8-yl]-2-morpholin-4-ylbenzoic acid]: the EC50 in assay [1] (setting [3]) was found to be 3.2 nM. In addition, the fold induction at 30 mg/kg in assay [2] (setting [8]) amounted to 5.7; in assay [2] (setting [9]), 4.2; in assay [2] (setting [10]), 17.
